{"source": "patent US7575882B2", "about": "“Compositions and methods for identifying modulators of TRPV2” (Janssen Pharmaceutica N. V., priority 2005, dated 2009)", "target": "T1, rat and human TRPV2 chimera HRR (Rattus norvegicus, UniProt Q9WUD2, A110E/A257S/D189N/D73N/DEL322-322/DEL56-59/DEL67-67/E160D/E240Q/E289D/E384A/E71D/E91D/F161Y/G295D/H202G/H269S/H293L/I268T/K144R/K150Q/K353E/K51R/L151P/L192A/L245Q/L96P/M137L/M277A/N102T/N368H/N45K/N63G/P261A/P325H/P38Q/P60Y/P61R/Q129K/Q163R/Q324S/Q70P/R100S/R388L/R392K/R41G/S264I/S291R/S346A/S391P/S46F/S47A/S65G/S82N/T227S/T93A/V390I/V83A/W101K/W351C/Y323L)", "T1 construct": "expressed in transfected cells; host or cells: HEK293, transient, pCI-neo", "T1 sequence (Q9WUD2 with tags, fused parts or gaps P38Q/R41G/N45K/S46F/S47A/K51R/DEL56-59/P60Y/P61R/N63G/S65G/DEL67-67/Q70P/E71D/D73N/S82N/V83A/E91D/T93A/L96P/R100S/W101K/N102T/A110E/Q129K/M137L/K144R/K150Q/L151P/E160D/F161Y/Q163R/D189N/L192A/H202G/T227S/E240Q/L245Q/A257S/P261A/S264I/I268T/H269S/M277A/E289D/S291R/H293L/G295D/DEL322-322/Y323L/Q324S/P325H/S346A/W351C/K353E/N368H/E384A/R388L/V390I/S391P/R392K)": "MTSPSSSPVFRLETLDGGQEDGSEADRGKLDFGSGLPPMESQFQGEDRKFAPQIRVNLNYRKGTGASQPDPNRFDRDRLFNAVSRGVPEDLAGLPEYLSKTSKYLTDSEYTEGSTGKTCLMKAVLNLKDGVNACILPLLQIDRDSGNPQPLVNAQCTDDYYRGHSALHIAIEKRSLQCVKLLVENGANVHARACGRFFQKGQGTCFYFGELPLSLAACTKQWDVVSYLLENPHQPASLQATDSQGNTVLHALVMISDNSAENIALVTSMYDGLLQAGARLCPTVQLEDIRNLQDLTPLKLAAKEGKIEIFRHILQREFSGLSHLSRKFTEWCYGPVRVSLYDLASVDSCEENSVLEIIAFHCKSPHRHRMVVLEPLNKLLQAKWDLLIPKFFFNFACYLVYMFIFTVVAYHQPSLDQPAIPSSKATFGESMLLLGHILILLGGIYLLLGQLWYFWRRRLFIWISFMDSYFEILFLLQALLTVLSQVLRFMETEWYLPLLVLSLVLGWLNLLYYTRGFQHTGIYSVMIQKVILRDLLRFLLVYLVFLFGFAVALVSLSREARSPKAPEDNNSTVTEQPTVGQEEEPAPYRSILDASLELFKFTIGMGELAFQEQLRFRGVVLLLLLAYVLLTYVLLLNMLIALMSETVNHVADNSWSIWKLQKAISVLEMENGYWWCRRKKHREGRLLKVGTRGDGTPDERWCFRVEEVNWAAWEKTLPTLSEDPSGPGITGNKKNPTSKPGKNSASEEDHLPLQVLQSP", "experiment": "Calcium mobilization in HEK293 cells expressing TRPV2 chimera HRR", "assay_type": "cell-based", "conditions": "expressed separately in HEK cells", "description": "The deletion mutant constructs were then transfected into HEK293 cells using Fugene 6 reagent (Roche) as per the manufacturer's instructions. At 24 hours post-transfection, the cells were harvested and replated in fresh DMEM medium supplemented with 10% fetal bovine serum, 100 units/ml penicillin, and 100 μg/ml streptomycin. The cells were distributed onto poly-D-Lysine coated 96-or 384-well plates at a density of approximately 40,000 and 10,000 cells per well, respectively. At approximately 48 hours post-transfection, the medium was removed from the assay plate and replaced with Calcium 3 Dye Buffer (Molecular Devices) using the protocol available from the manufacturer. Calcium mobilization was triggered using Δ^9-THC or 2-APB or elevated temperature buffer and measured using either FLIPR or FLEX STATION instruments.\nBased on the predicted topology and primary sequence features of TRPV2, TRPV2 are divided into 3 major domains: 1) the amino-terminal intracellular domain; 2) the transmembrane domain; and 3) the carboxyl-terminal intracellular domain. For a chimera, each domain can be of rat (R) or human (H) origin. Three rat and human TRPV2 chimera were constructed and tested herein. RRH (SEQ ID NO:15) was a chimera comprising rat 1-392 aa, rat 393-646 aa, and human 647-764 aa. RHR (SEQ ID NO:16) was a chimera comprising rat 1-392, human 391-646, and rat 647-761. […]"}
{"substance": "Delta-9-tetrahydrocannabinol [Δ^9-THC]", "values": [{"measurement": "response of chimera HRR to the compound", "result": "not active"}]}
